Here are results for 62 molecules from PubChem BioAssay AID2305 (GlaxoSmithKline (GSK), 2010).

SMILES strings stand for the structures.

This assay has as its system P. falciparum 3D7 growth, pLDH absorbance. The assay is described as follows: P. falciparum 3D7 growth inhibition, dose response, strain 3D7 (AID 2305).

For orientation: IC50 means the point on the concentration scale where inhibition reaches its midpoint. Low values mean inhibition by little substance, high ones a need for much substance. For `O=C(Nc1ccc([N+](=O)[O-])cc1O)Nc1ccccc1Oc1ccccc1`, the concentration for half-maximal inhibition (IC50) amounted to 930 nM.
Then `Cn1ncc2c3c(CCN4CCC(NCc5ccc6c(c5)NC(=O)CO6)CC4)c(Cl)cnc3ccc21`, with 490 nM.
To `Cc1cc(F)ccc1-c1nc(NCC(O)CNCCc2ccccc2)nc2c1ccc(=O)n2-c1c(F)cccc1F` (configuration not stated) belongs 540 nM.
In turn, `Oc1ccccc1N1CCN(c2ccc(-c3nc4ccccc4[nH]3)cn2)CC1` displayed an IC50 of 1130 nM.
To `CN(C)CCCNCc1ccc(-c2ccc(CNCCOc3ccccc3)cc2)cc1` belongs 20 nM; to `Oc1ccccc1CN1CCC(CCOC(c2ccccc2)c2ccc(Cl)cc2)CC1` (configuration not stated), 740 nM; to `CCOC(=O)c1c(CN(CC)CC)n(-c2ccccc2)c2cc(Br)c(O)cc12`, 1000 nM.
Then `NC(N)=Nc1nc(-c2ccc(N=C(N)N3CCC[C@H]3CN3CCCC3)cc2)cs1`, with 1110 nM.
For the molecule `COc1cc(NC(=O)/C=C/c2cc(F)cc(F)c2F)cc(OCCN2CCC3(CC2)OCCO3)c1`, the IC50 amounted to 270 nM.
To `CCCC(C)Nc1nc(C)cc(N[C@@H](CC(C)C)C(=O)NCc2ccc(C)cc2)n1` (some centres not stated) belongs 1010 nM.
Then `O=C(Nc1ccc(CN2CCN(S(=O)(=O)c3ccc(Cl)s3)CC2)cc1)c1cccs1`, with 890 nM; and `CCc1c(C)c2ccc3c(c2oc1=O)CN(CCc1ccc(F)cc1)CO3`, with 1230 nM; and `COc1ccc(CNCc2ccccc2)cc1-c1ccc(S(=O)(=O)NCCN2CCCC2)c(C)c1`, with 860 nM.
Consider `Cn1nccc1C(=O)NCCNCc1ccc(-c2cccc(-c3nc4ccccc4[nH]3)c2)cc1`, for which the half-inhibitory concentration (IC50) is 140 nM.
To `COc1ccc2nccc(N(C)CC3(O)CCN(CC(O)c4ccc5c(c4)NC(=O)CS5)CC3)c2n1` (configuration not stated) belongs 590 nM; to `O=C(/C=C/c1ccc(Cl)c(Cl)c1)NCCCCCN1CCC(NC(=O)Nc2ccc(Cl)cc2F)CC1`, 310 nM.
Then `N#Cc1ccc(N[C@@H](CC2CCCCC2)C(=O)Nc2ccc(-c3ccccc3)cc2)c2ccccc12`, with 600 nM.
Then `CCOc1cc(C)ccc1C1CCN(CCCCNC(=O)c2cnc(-c3ccc(C(F)(F)F)cc3)[nH]2)CC1`, with 770 nM; and `CNC(=O)c1cnc(Nc2ccc(N3CCN(C)CC3)cc2)nc1Nc1cccc([N+](=O)[O-])c1`, with 290 nM.
Turning to `CCCCN1CC[C@@H](CCC(O)c2ccnc3ccc(OCCC(C)C)cc23)[C@@H](CC)C1` (some centres not stated), the IC50 came to 990 nM.
Then `Cc1cc(Nc2ccc3c(c2)CCC3)n2ncnc2n1`, with 970 nM; and `CC(C)CCN(Cc1cncn1Cc1cccc(Cl)c1)C(=O)c1cncc(-c2ccccc2)c1`, with 760 nM; and `COc1ccc2c(c1)CC(NCc1ccc(-c3ccc4nc[nH]c4c3)cc1)C2` (configuration not stated), with 880 nM.
For `CC(=O)C1(c2ccccc2)CCN(CCC2(c3ccc(Cl)c(Cl)c3)CN(C(=O)C3CCCC3)CCO2)CC1` (configuration not stated), the 50% inhibitory concentration (IC50) is 800 nM.
Regarding `Clc1ncnc2ncn(Cc3cccc(Br)c3)c12`, the 50% inhibitory concentration (IC50) amounted to 1060 nM.
As for `O=C(c1cc(C(=O)Nc2ccccc2F)c(=O)n(-c2ccccc2F)c1)c1cc(Cl)ccc1O`, the IC50 was 710 nM.
Then `Cc1ccc2nc(C)cc(NN=CC=Cc3ccccc3)c2c1`, with 840 nM; and `CN(C)CCCN(C)c1cccc2c1nc(-c1cccnc1)n2CCNCc1ccccc1`, with 1390 nM.
To `O=C(NC1CCN(Cc2ccccc2)CC1)c1ccc2c(=O)n(Cc3ccc(Cl)cc3)c(=S)[nH]c2c1` belongs 1000 nM; to `O=C(/C=C/c1ccc(Cl)c(Cl)c1)NCCCCCN1CCC(NC(=S)Nc2ccc(Cl)cc2Cl)CC1`, 740 nM; to `COc1ccc2c(NN=Cc3ccccc3Cl)cc(C)nc2c1`, 370 nM.
Consider `Clc1ccc(-c2nc3ccc(-c4ccc5nc(-c6ccc(Cl)cc6)[nH]c5c4)cc3[nH]2)cc1`, for which the half-inhibitory concentration (IC50) worked out at 240 nM.
`O=C(/C=C/c1ccc(Cl)c(Cl)c1)NC1CCN(Cc2ccc(O)cc2)CC1` showed an IC50 of 690 nM.
To `CCOC(=O)NOC(C(=O)O)c1ccccc1` (configuration not stated) belongs 190 nM; to `COCc1ccc(CN2CCC(C(=O)Nc3ccc(-c4nc5ccccc5[nH]4)cc3)CC2)o1`, 850 nM; to `CCOC(=O)c1ccc(N2CCN(c3cc(C)ccc3C)CC2)c(NC(=O)Nc2ccc(Cl)c(Cl)c2)c1`, 710 nM.
To `COc1cc(OC)c2c(c1Cl)O[C@]1(C2=O)C(=O)C(Cc2ccccc2)(Cc2ccccc2)C(=O)C[C@H]1C` belongs 970 nM; to `CC1(C)CCCC(=Cc2ccc(Br)cc2)C1(O)Cn1ccnc1` (configuration not stated), 790 nM; to `Cc1ccccc1NC1=NC(=S)N(c2cccc(C(F)(F)F)c2)C12CCC(C(C)(C)C)CC2` (configuration not stated), 970 nM.
In turn, `O=C(NCC1CC1)C1Cc2c([nH]c3ccc(Br)cc23)C2(CCN(CCc3ccccc3)CC2)N1` (configuration not stated) showed a half-inhibitory concentration (IC50) of 910 nM.
Then `COC(=O)c1ccc(CC(C)NCC(O)c2ccc(Cl)c(Cl)c2)cc1` (configuration not stated), with 1000 nM; and `O=C(NCC1CCC(CNCCCc2ccccc2)CC1)Nc1ccc(Cl)c(Cl)c1` (configuration not stated), with 770 nM; and `CCCN(CCC)CCCOc1ccc(C(=O)c2c(-c3ccc(OCCCN(CCC)CCC)cc3)oc3ccc(Cl)cc23)cc1`, with 340 nM.
Molecule `Cc1[nH]c2cc(F)ccc2c1C1=CCN(CCCCC2(C)C(=O)Nc3ccccc32)CC1` (configuration not stated) registered an IC50 of 290 nM.
To `O=C(NCCCCCCNCc1ccc(-c2ccccc2)cc1)Nc1ccc(Cl)c(Cl)c1` belongs 960 nM; to `Cc1cccc2[nH]c(-c3ccc(-c4cccc(CNCc5cccc(N)c5)c4)cc3)nc12`, 390 nM; to `CC1(C)CCCN(C(=O)Cc2ccc3c(c2)CCCC3)C1CN1CC=CC1` (configuration not stated), 720 nM.
Then `Cc1cccc(C(=O)N2CCN(Cc3cccc(NC(=O)c4cccs4)c3)CC2)c1`, with 220 nM; and `O=C(NC1CCCCC1)N(CCCn1ccnc1)Cc1csc(-c2ccc(CNCc3ccccc3)cc2)n1`, with 840 nM; and `CC(C)(C)c1nn(-c2ccc(Cl)cc2)c2[nH]c(=O)c(CNCc3cccs3)cc12`, with 760 nM.
Then `CCc1ccccc1N1CCN(CCCCNC(=O)c2ccc(NC(=O)c3ccc(Cl)cc3)cc2)CC1`, with 960 nM.
`O=C(/C=C/c1ccccc1O)NCCCCCN1CCC(c2c[nH]c3ccccc23)CC1` had an IC50 of 830 nM.
In turn, `COc1ccc2nccc([C@@H](O)CN3CCC(NC(=O)Cc4cccc5c(Br)cccc45)CC3)c2c1` registered a 50% inhibitory concentration (IC50) of 800 nM.
Then `O=C(Nc1ccc(Oc2ccccc2)cc1)N(CCN1CCCC1)Cc1ccc(-c2ccc(CN3CCNCC3)cc2)cc1`, with 890 nM; and `Cn1cncc1C(=O)Nc1cccc(-c2ccc(-c3nc4ccc(F)cc4[nH]3)cc2)c1`, with 730 nM.
To `O=S(=O)(Nc1cc2c(cc1O)CCN(C1CCC1)CC2)c1ccc(Oc2ccc(F)cc2)cc1` belongs 780 nM; to `C=CCOC(=O)O[C@@H]1[C@@H](OC(=O)OCC=C)[C@@H](OC)O[C@H](COC(c2ccccc2)(c2ccccc2)c2ccccc2)[C@H]1OC(=O)OCC=C`, 890 nM.
Then `FC(F)(F)Oc1ccc(-c2cnc3ccc(NCc4ccncc4)nn23)cc1`, with 870 nM; and `Cc1cc(NN=Cc2ccc(F)cc2)c2ccc(F)cc2n1`, with 950 nM.
For the molecule `CCn1c(Sc2ccc([N+](=O)[O-])c(C#N)c2)nnc1-c1ccc(Cl)cc1`, the IC50 turned out to be 1000 nM.
Then `COc1ccc(C2N=C(N)N=C(N)N2OCc2ccccc2)cc1OC` (configuration not stated), with 130 nM; and `CC(C)c1ccc(NC(=O)NCCCC2CCCN(CCCCCNC(=O)/C=C/c3ccc(Cl)c(Cl)c3)C2)cc1` (configuration not stated), with 960 nM.
